Data reported in PubChem BioAssay AID330 (DTP/NCI, 2004).
Values joined by “and” are separate entries in the source; they are usually repeats but may differ in a detail not shown here. Identical values can stand only once. Inconclusive results and toxic doses are left out. The calls were made as follows: active = survival T/C of 150% or more; inactive = T/C below 125% in these data.

System: P388 leukemia ip, CD2F1 mice, survival T/C
Test: NCI In Vivo Anticancer Drug Screen. Data for tumor model P388 Leukemia (intraperitoneal) in CD2F1 (CDF1) mice
Details: endpoint: median survival time, higher = longer survival
Summary of the method: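 Mice carrying the transplanted tumor received test compound or vehicle. Survival was recorded in each group, and the value is the treated-group measurement divided by that of the vehicle-treated control group.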

[1] = dose: 100.0 mg/kg/injection, schedule: Q04DX003 (ip), vehicle: saline
[2] = dose: 50.0 mg/kg/injection, schedule: Q01DX005 (ip), vehicle: Klucel (hydroxypropylcellulose) (HPC)
[3] = dose: 100.0 mg/kg/injection, schedule: Q01DX005 (ip), vehicle: Klucel (hydroxypropylcellulose) (HPC)
[4] = dose: 200.0 mg/kg/injection, schedule: Q01DX005 (ip), vehicle: Klucel (hydroxypropylcellulose) (HPC)
[5] = dose: 100.0 mg/kg/injection, schedule: Q01DX009 (ip), vehicle: saline
[6] = dose: 200.0 mg/kg/injection, schedule: Q01DX009 (ip), vehicle: saline
[7] = dose: 50.0 mg/kg/injection, schedule: Q01DX009 (ip), vehicle: saline with Tween-80
[8] = dose: 100.0 mg/kg/injection, schedule: Q01DX009 (ip), vehicle: saline with Tween-80
[9] = dose: 200.0 mg/kg/injection, schedule: Q01DX009 (ip), vehicle: saline with Tween-80

Measured: T/C

OCCN1CCN(CC/C=C2\c3ccccc3COc3ccc(Cl)cc32)CC1
inactive: dose: 6.25 mg/kg/injection, schedule: Q04DX003 (ip), vehicle: saline 100 % of control | dose: 12.5 mg/kg/injection, schedule: Q04DX003 (ip), vehicle: saline 114 % of control and 117 % of control | dose: 25.0 mg/kg/injection, schedule: Q04DX003 (ip), vehicle: saline 110 % of control | dose: 50.0 mg/kg/injection, schedule: Q04DX003 (ip), vehicle: saline 110 % of control | [1] 97 % of control

CC(C)=CCN1CCC2(C)c3cc(O)ccc3CCC2C1 (stereo not drawn)
inactive: [2] 94 % of control | [3] 104 % of control | [4] 94 % of control

Cc1c2occc2cc2c1oc(=O)c1cnccc12
inactive: [2] 105 % of control | [3] 100 % of control | [4] 98 % of control

COC(=O)Nc1ccc(C2OCCN2C(=O)Nc2ccc(Cl)cc2)cc1 (stereo not drawn)
inactive: dose: 50.0 mg/kg/injection, schedule: Q01DX005 (ip), vehicle: saline with Tween-80 87 % of control | dose: 100.0 mg/kg/injection, schedule: Q01DX005 (ip), vehicle: saline with Tween-80 88 % of control

CC(=O)Nc1ccc(S(=O)(=O)n2c(=O)oc3cc(Cl)ccc32)cc1
inactive: [2] 86 % of control | [3] 99 % of control | [4] 86 % of control

O=C(O)c1c[nH]c2cc(OCc3ccc(Br)cc3)ccc2c1=O
inactive: dose: 50.0 mg/kg/injection, schedule: Q01DX009 (ip), vehicle: saline 96 % of control | [5] 89 % of control | [6] 86 % of control

COCC(O)Cn1ccnc1N=Nc1ccccc1 (stereo not drawn)
inactive: dose: 60.0 mg/kg/injection, schedule: Q01DX005 (ip), vehicle: saline with Tween-80 103 % of control | dose: 120.0 mg/kg/injection, schedule: Q01DX005 (ip), vehicle: saline with Tween-80 102 % of control

CNCc1nc2sc3c(c2c(=O)[nH]1)CCCC3
inactive: [7] 97 % of control | [8] 105 % of control | [9] 102 % of control

CCCCNC1=CC(=O)c2ccccc2C1=O
inactive: dose: 50.0 mg/kg/injection, schedule: Q04DX003 (ip), vehicle: saline with Tween-80 99 % of control | dose: 100.0 mg/kg/injection, schedule: Q04DX003 (ip), vehicle: saline with Tween-80 92 % of control | dose: 200.0 mg/kg/injection, schedule: Q04DX003 (ip), vehicle: saline with Tween-80 88 % of control

Cc1ccc(/C=C2\SC(=S)N(C3CC3)C2=O)cc1
inactive: [2] 97 % of control | [3] 95 % of control | [4] 93 % of control

[C-]#[O+].[C-]#[O+].[C-]#[O+].[CH3][Sn]([c]1ccccc1)[c]1ccccc1.[W].[c-]1[c-][c-][cH-][c-]1
inactive: [1] 103 % of control | dose: 200.0 mg/kg/injection, schedule: Q04DX003 (ip), vehicle: saline 110 % of control | dose: 400.0 mg/kg/injection, schedule: Q04DX003 (ip), vehicle: saline 110 % of control

Nc1cccc(=O)[nH]1
inactive: [5] 95 % of control | [6] 109 % of control | dose: 400.0 mg/kg/injection, schedule: Q01DX009 (ip), vehicle: saline 113 % of control and 123 % of control

C=CCc1ccc(OC(=O)Nc2ccc(C)cc2[N+](=O)[O-])c(OC)c1
inactive: [7] 88 % of control | [8] 88 % of control | [9] 95 % of control

Nc1nc(N)c(Cc2ccncc2)cc1Cc1ccncc1
inactive: [2] 112 % of control | [3] 101 % of control | [4] 111 % of control

C[n+]1ccc(C[n+]2ccccc2)c2ccccc21
inactive: dose: 50.0 mg/kg/injection, schedule: Q01DX005 (ip), vehicle: saline 104 % of control | dose: 100.0 mg/kg/injection, schedule: Q01DX005 (ip), vehicle: saline 100 % of control | dose: 200.0 mg/kg/injection, schedule: Q01DX005 (ip), vehicle: saline 96 % of control

CC(=O)NC(CC(=O)O)C(=O)O (stereo not drawn)
inactive: dose: 100.0 mg/kg/injection, schedule: Q01DX001 (ip), vehicle: saline 106 % of control | dose: 200.0 mg/kg/injection, schedule: Q01DX001 (ip), vehicle: saline 100 % of control | dose: 400.0 mg/kg/injection, schedule: Q01DX001 (ip), vehicle: saline 97 % of control
